Laboratory results taken from patent US10176292B2, “STING crystals and modulators” (MEMORIAL SLOAN-KETTERING CANCER CENTER, priority 2013, dated 2019).

Key:
[1] = target: hSTING^H232/V162 (Homo sapiens, UniProt Q86WV6, S162V); experiment: ITC binding, hSTING^H232/V162; conditions: Protein: 0.08 mM; Ligands: 0.8 mM; 180 mM NaCl, pH 7.5; 25° C.
[2] = test system: non-small-cell lung cancer; conditions: with paclitaxel and carboplatin, non-small-cell lung cancer (Lara et al. 2011); cited from earlier work

Sequence of hSTING^H232/V162 (Q86WV6 140-379 S162V): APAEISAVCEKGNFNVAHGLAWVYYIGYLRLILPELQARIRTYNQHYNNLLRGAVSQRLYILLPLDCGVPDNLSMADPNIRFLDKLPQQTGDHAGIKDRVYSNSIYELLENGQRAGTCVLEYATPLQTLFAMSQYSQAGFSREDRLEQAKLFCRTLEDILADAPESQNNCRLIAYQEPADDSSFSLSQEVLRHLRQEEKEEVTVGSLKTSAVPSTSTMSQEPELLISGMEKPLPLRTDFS

Cc1ccc2c(=O)c3cccc(CC(=O)O)c3oc2c1C [DMXAA, 5,6-dimethylxanthenone-4-acetic acid]
TΔS [1]: +7.84 Kcal/mol
ΔG [1]: -7.45 kcal/mol
ΔH [1]: +0.39 Kcal/mol
outcome of human phase III trials [2]: failed
